Experimental findings from patent US8507510B2, “Sulfoximine-substituted pyrimidines as CDK- and/or VEGF inhibitors, their production and use as pharmaceutical agents” (Bayer Intellectual Property GmbH, priority 2003, dated 2013) are described below.

One assay deals with MCF7. Put plainly: Proliferation assay, MCF7. It counts as cell-based, human. Conditions: MCF7 cells, 4 days, crystal violet. The text has this: (§1) Cultivated human tumor cells (MCF7, […] human breast cancer cells, related to ATCC HTB22; NCI-H460, human non-small-cell lung cancer cells, ATCC HTB-177, HCT 116, human colon cancer cells, ATCC CCL-247; DU 145, hormone-independent human prostate cancer cells, ATCC HTB-81; MaTu-MDR, hormone-independent, multiple pharmaceutical agent-resistant human breast cancer cells, EPO-GmbH, Berlin) were flattened out at a density of about 5000 cells/measuring point, depending on the growth rate of the respective cells, in a 96-well multititer plate in 200 μl of the corresponding growth medium. After 24 hours, the cells of one plate (zero-point plate) were colored with crystal violet (see below), while the medium of the other plates was replaced by fresh culture medium (200 μl), to which the test substances were added in various concentrations (0 μm, as well as in the range of 0.01-30 μm; the final concentration of the solvent dimethyl sulfoxide was 0.5%). The cells were incubated for 4 days in the presence of test substances. The cell proliferation was determined by coloring the cells with crystal violet: the cells were fixed by adding 20 μl/measuring point of an 11% glutaric aldehyde solution for 15 minutes at room temperature. After three washing cycles of the fixed cells with water, the plates were dried at room temperature. The cells were colored by adding 100 μl/measuring point of a 0.1% crystal violet solution (the pH was set at 3 by adding acetic acid). After three washing cycles of the colored cells with water, the plates were dried at room temperature. The dye was dissolved by adding 100 μl/measuring point of a 10% acetic acid solution. The extinction was determined by photometry at a wavelength of 595 nm The change of cell growth, in percent, was calculated by normalization of the measured values to the extinction values of the zero-point plate (=0%) and the extinction of the untreated (0 μm) cells (=100%).

The target of another assay is CDK2/CycE (Homo sapiens (Human), UniProt P24941). Put plainly: CDK2/CycE kinase assay. It is filed as biochemical. Conditions: histone IIIS substrate, 0.5 μm ATP. The method, then:
Recombinant CDK2- and CycE-GST-fusion proteins, purified from baculovirus-infected insect cells (Sf9), were purchased by ProQinase GmbH, Freiburg. Histone IIIs, which was used as a kinase substrate, was purchased by the Sigma Company.
CDK2/CycE (50 ng/measuring point) was incubated for 15 minutes at 22° C. in the presence of various concentrations of test substances (0 μm, as well as within the range of 0.01-100 μm) in assay buffer [50 mmol of tris/HCl, pH 8.0, 10 mmol of MgCl2, 0.1 mmol of Na ortho-vanadate, 1.0 mmol of dithiothreitol, 0.5 μm of adenosine triphosphate (ATP), 10 μg/measuring point of histone IIIS, 0.2 μCi/measuring point of ^33P-gamma ATP, 0.05% NP40, 12.5% dimethyl sulfoxide]. The reaction was stopped by adding EDTA solution (250 mmol, pH 8.0, 14 μl/measuring point).
From each reaction batch, 10 μl was applied to P30 filter strips (Wallac Company), and non-incorporated ^33P-ATP was removed by subjecting the filter strips to three washing cycles for 10 minutes each in 0.5% phosphoric acid. After the filter strips were dried for one hour at 70° C., the filter strips were covered with scintillator strips (MeltiLex™ A, Wallac Company) and baked for one hour at 90° C. The amount of incorporated ^33P (substrate phosphorylation) was determined by scintillation measurement in a gamma-radiation measuring device (Wallac).

For another assay, the system named is H460. The assay can be described thus: Proliferation assay, H460. It is filed as cell-based, human. Conditions: H460 cells, 4 days, crystal violet.
Description: as §1

Another assay relates to DU145. Put plainly: Proliferation assay, DU145. It counts as cell-based, human. Conditions: DU145 cells, 4 days, crystal violet.
Description: as §1

Another assay deals with MaTu-ADR. Put plainly: Proliferation assay, MaTu-ADR. It is filed as cell-based, human. The following applies: MaTu-ADR cells, 4 days, crystal violet.
Description: as §1

pIC50: −log10 of the molar value. Bounds are passed on as bounds.

Usually pIC50 stands for −log10 of the IC50, conventionally taken in molar units. High values mean a small IC50, low ones a large IC50.

Consider `CCS(=N)(=O)c1ccc(Nc2ncc(Br)c(N[C@H](C)[C@@H](C)O)n2)cc1` (single isomer, unassigned) [Example 1.53], for which the pIC50 is 6.52 in the assay on MCF7 (Homo sapiens, MCF7, 96 h) and 8.40 at CDK2/CycE.

`CCS(=N)(=O)c1ccc(Nc2ncc(Br)c(N[C@H](COC)[C@@H](C)O)n2)cc1` (mixture of isomers) [Example 1.48, (RS)—S-{4-[(5-bromo-4-{[(1R,2R)-2-hydroxy-1-(methoxymethyl)-propyl]amino}pyrimidin-2-yl)amino]phenyl}-S-ethyl sulfoximide] had a pIC50 with MCF7 (Homo sapiens, MCF7, 96 h) of 6.52.

For the compound `COc1cc(Nc2ncc(Br)c(N[C@H](C)[C@@H](C)O)n2)ccc1S(C)(=N)=O` (single isomer, unassigned) [Example 1.27], the negative-log IC50 (pIC50) in the assay on H460 (Homo sapiens, NCI-H460, 96 h) is 7.70; in the assay with MCF7 (Homo sapiens, MCF7, 96 h), 7.22; in the assay on DU145 (Homo sapiens, DU-145, 96 h) it was 6.89.

For `COC[C@@H](Nc1nc(Nc2ccc(S(C)(=N)=O)cc2)ncc1Br)[C@@H](C)O` (mixture of isomers) [Example 1.46, (RS)-S-{4-[(5-bromo-4-{[(1R,2R)-2-hydroxy-1-(methoxymethyl)-propyl]amino}pyrimidin-2-yl)amino]phenyl}-S-methyl sulfoximide], the pIC50 was 6.96 in the assay on H460 (Homo sapiens, NCI-H460, 96 h); 6.70 in the assay with MCF7 (Homo sapiens, MCF7, 96 h); 6.77 in the assay on DU145 (Homo sapiens, DU-145, 96 h); 6.70 with MaTu-ADR (Homo sapiens, 96 h).

The compound `C[C@@H](O)[C@@H](C)Nc1nc(Nc2ccc(S(=N)(=O)CCO)cc2)ncc1Br` (single isomer, unassigned) [Example 1.19] had a pIC50 in the assay on MCF7 (Homo sapiens, MCF7, 96 h) greater than 7.00.

In the case of `CCS(=N)(=O)c1ccc(Nc2ncc(Br)c(N[C@H](C)C(C)(C)O)n2)cc1` (single isomer, unassigned) [Example 1.56], the pIC50 in the assay on H460 (Homo sapiens, NCI-H460, 96 h) was 7.00; in the assay on MCF7 (Homo sapiens, MCF7, 96 h), 7.70; in the assay with MaTu-ADR (Homo sapiens, 96 h), 7.30.

Consider `Cc1cc(Nc2ncc(Br)c(N[C@H](C)C(C)(C)O)n2)ccc1S(C)(=N)=O` (mixture of isomers) [Example 1.58, (RS)-S-[4-({5-bromo-4-[(R)-(2-hydroxy-1,2-dimethylpropyl)amino]pyrimidin-2-yl}amino)-2-methylphenyl]-S-methyl sulfoximide], for which the negative-log IC50 (pIC50) was 7.52 in the assay on H460, 7.22 in the assay on MCF7, 7.52 in the assay on DU145 and 7.40 in the assay on MaTu-ADR.

As to `Cc1cc(Nc2ncc(Br)c(N[C@H](C)C(C)(C)O)n2)ccc1S(C)(=N)=O` (mixture of isomers) [Example 1.57, (RS)—S-[4-({5-bromo-4-[(R)-(2-hydroxy-1,2-dimethylpropyl)amino]pyrimidin-2-yl}amino)-2-methylphenyl]-S-methyl sulfoximide], the results for the pIC50 in the assay with H460, in the assay on DU145 and in the assay with MaTu-ADR were 6.92, 6.96 and 7.05, respectively.

Consider `Cc1cc(Nc2ncc(Br)c(N[C@H](C)C(C)(C)O)n2)ccc1S(C)(=N)=O` (single isomer, unassigned) [Example 1.59], for which the negative logarithm of the IC50 (pIC50) with H460 (Homo sapiens, NCI-H460, 96 h) was greater than 7.00; in the assay with MCF7 (Homo sapiens, MCF7, 96 h), 6.96; in the assay with DU145 (Homo sapiens, DU-145, 96 h), greater than 7.00; in the assay on MaTu-ADR (Homo sapiens, 96 h), greater than 7.00.

For `C[C@@H](O)[C@@H](C)Nc1nc(Nc2ccc(S(=N)(=O)CCO)cc2)ncc1Br` (mixture of isomers) [Example 1.18, (RS)-S-[4-({5-bromo-4-[(1R,2R)-(2-hydroxy-1-methyl-propyl)amino]pyrimidin-2-yl}amino)phenyl]-S-(2-hydroxyethyl)sulfoximide], the negative logarithm of the IC50 (pIC50) in the assay with MCF7 (Homo sapiens, MCF7, 96 h) was greater than 7.00.

The compound `CCS(=N)(=O)c1ccc(Nc2ncc(Br)c(N[C@H](COC)[C@@H](C)O)n2)cc1` (single isomer, unassigned) [Example 1.50] gave a pIC50 with MCF7 (Homo sapiens, MCF7, 96 h) of 5.92.

Turning to `CCS(=N)(=O)c1ccc(Nc2ncc(Br)c(N[C@H](C)C(C)(C)O)n2)cc1` (mixture of isomers) [Example 1.55, (RS)-S-[4-({5-bromo-4-[(R)-(2-hydroxy-1,2-dimethylpropyl)amino]pyrimidin-2-yl}amino)phenyl]-S-ethyl sulfoximide], the pIC50 with H460 is 6.52; in the assay on MCF7 it was 6.52; in the assay with DU145, 6.52; in the assay on MaTu-ADR, 6.82.

As for `C[C@@H](Nc1nc(Nc2ccc(S(C)(=N)=O)cc2)ncc1Br)C(C)(C)O` (single isomer, unassigned) [Example 1.42], the pIC50 in the assay on H460 (Homo sapiens, NCI-H460, 96 h) is greater than 7.00; with MCF7 (Homo sapiens, MCF7, 96 h), 6.82; in the assay on DU145 (Homo sapiens, DU-145, 96 h), 6.77; in the assay with MaTu-ADR (Homo sapiens, 96 h), greater than 7.00.

With `C[C@@H](Nc1nc(Nc2ccc(S(=N)(=O)CCO)cc2)ncc1Br)C(C)(C)O` (mixture of isomers) [Example 1.14, (RS)-S-[4-({5-bromo-4-[(R)-(2-hydroxy-1,2-dimethylpropyl)amino]pyrimidin-2-yl}amino)phenyl]-S-(2-hydroxyethyl)-sulfoximide], the pIC50 is 7.05 in the assay with DU145 (Homo sapiens, DU-145, 96 h) and 6.96 in the assay on MaTu-ADR (Homo sapiens, 96 h).

In the assay on MCF7, `CCS(=N)(=O)c1ccc(Nc2ncc(Br)c(N[C@H](C)[C@@H](C)O)n2)cc1` (mixture of isomers) [Example 1.52, (RS)-S-[4-({5-bromo-4-[(1R,2R)-(2-hydroxy-1-methylpropyl)amino]pyrimidin-2-yl}amino)phenyl]-S-ethyl sulfoximide] had a pIC50 greater than 7.00.

`COc1cc(Nc2ncc(Br)c(N[C@H](C)[C@@H](C)O)n2)ccc1S(C)(=N)=O` (mixture of isomers) [Example 1.26, (RS)-S-[4-({5-bromo-4-[(1R,2R)-(2-hydroxy-1-methylpropyl)amino]pyrimidin-2-yl}amino)-2-methoxyphenyl]-S-methyl sulfoximide]: the pIC50 with MCF7 is 7.22.

Consider `CN=S(C)(=O)c1ccc(Nc2ncc(Br)c(N[C@H](C)[C@@H](C)O)n2)cc1` (mixture of isomers) [Example 1.29, (RS)-S-[4-({5-bromo-4-[(1R,2R)-(2-hydroxy-1-methylpropyl)amino]pyrimidin-2-yl}amino)phenyl]-N,S-dimethyl-sulfoximide], for which the pIC50 with MCF7 is 6.77.

As to `CCS(=N)(=O)c1ccc(Nc2ncc(Br)c(N[C@H](C)C(C)(C)O)n2)cc1` (mixture of isomers) [Example 1.54, (RS)—S-[4-({5-bromo-4-[(R)-(2-hydroxy-1,2-dimethylpropyl)amino]pyrimidin-2-yl}amino)phenyl]-S-ethyl sulfoximide], the pIC50 with H460 was 6.92; in the assay on MCF7, 6.96; in the assay on DU145 (Homo sapiens, DU-145, 96 h), 6.72.

In the assay with MCF7 (Homo sapiens, MCF7, 96 h), `CCS(=N)(=O)c1ccc(Nc2ncc(Br)c(N[C@H](C)[C@@H](C)O)n2)cc1` (mixture of isomers) [Example 1.51, (RS)—S-[4-({5-bromo-4-[(1R,2R)-(2-hydroxy-1-methylpropyl)amino]pyrimidin-2-yl}amino)phenyl]-S-ethyl sulfoximide] had a pIC50 of 7.10.

As for `CCS(=N)(=O)c1ccc(Nc2ncc(Br)c(N[C@H](COC)[C@@H](C)O)n2)cc1` (mixture of isomers) [Example 1.49, (RS)-S-{4-[(5-bromo-4-{[(1R,2R)-2-hydroxy-1-(methoxymethyl)-propyl]amino}pyrimidin-2-yl)amino]phenyl}-S-ethyl sulfoximide], the pIC50 with H460 is 6.40; in the assay with MCF7 it was 6.52; with DU145, 6.52; in the assay with MaTu-ADR, 6.22.

As for `CN=S(C)(=O)c1ccc(Nc2ncc(Br)c(N[C@H](C)[C@@H](C)O)n2)cc1` (mixture of isomers) [Example 1.30, (RS)-S-[4-({5-bromo-4-[(1R,2R)-(2-hydroxy-1-methylpropyl)amino]pyrimidin-2-yl}amino)phenyl]-N,S-dimethyl-sulfoximide], in the assay with MCF7, the negative-log IC50 (pIC50) was 6.77.
